# Laboratory results taken from ChEMBL document CHEMBL3576804, “Novel Potent Orthosteric Antagonist of ASIC1a Prevents NMDAR-Dependent LTP Induction” (J Med Chem, 2015).
# Calls of active or inactive are those of the source. The calls are words filed in the database; no cut-off is given here.
# What was measured:
# Assay type in all cases: cell-based
# [1] = target: T1, Acid-sensing ion channel 1 (Homo sapiens) (UniProt P78348); experiment: Inhibition of human ASIC1a endogenously expressed in HEK293 cells clamped at -100 mV gated ionic current at 100 uM at pH 6.7 by standard whole cell patch clamp assay
# T1 sequence (whole entry): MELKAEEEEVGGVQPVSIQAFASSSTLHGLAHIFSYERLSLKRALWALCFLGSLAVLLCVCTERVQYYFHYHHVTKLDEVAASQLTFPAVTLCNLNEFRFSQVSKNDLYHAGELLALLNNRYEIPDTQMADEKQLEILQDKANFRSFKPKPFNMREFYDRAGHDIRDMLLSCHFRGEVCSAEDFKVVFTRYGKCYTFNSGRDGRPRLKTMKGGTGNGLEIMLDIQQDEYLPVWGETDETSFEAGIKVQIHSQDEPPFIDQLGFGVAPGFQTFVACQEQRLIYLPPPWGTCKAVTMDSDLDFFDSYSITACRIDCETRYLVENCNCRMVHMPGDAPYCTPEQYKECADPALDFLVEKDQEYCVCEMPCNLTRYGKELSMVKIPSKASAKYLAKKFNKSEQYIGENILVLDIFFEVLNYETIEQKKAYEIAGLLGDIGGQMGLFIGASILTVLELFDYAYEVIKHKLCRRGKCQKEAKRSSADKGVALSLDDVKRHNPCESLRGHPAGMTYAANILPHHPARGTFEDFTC
# [2] = target: T1, Acid-sensing ion channel 1 (Homo sapiens); experiment: Reversible inhibition of human ASIC1a endogenously expressed in HEK293 cells clamped at -100 mV gated ionic current at 100 nM to 100 uM at pH 5.0 by standard whole cell patch clamp assay
# [3] = target: T1, Acid-sensing ion channel 1 (Homo sapiens); experiment: Inhibition of human ASIC1a endogenously expressed in HEK293 cells clamped at -100 mV gated ionic current at 100 uM at pH 5.0 by standard whole cell patch clamp assay
# [4] = target: T1, Acid-sensing ion channel 1 (Homo sapiens); experiment: Inhibition of human ASIC1a endogenously expressed in HEK293 cells clamped at -100 mV gated ionic current at 10 uM at pH 6.7 by standard whole cell patch clamp assay
# [5] = target: T1, Acid-sensing ion channel 1 (Homo sapiens); experiment: Inhibition of human ASIC1a endogenously expressed in HEK293 cells clamped at -100 mV gated ionic current at 100 nM at pH 5.0 by standard whole cell patch clamp assay
# [6] = target: T1, Acid-sensing ion channel 1 (Homo sapiens); experiment: Inhibition of human ASIC1a endogenously expressed in HEK293 cells clamped at -100 mV gated ionic current at 100 nM at pH 6.7 by standard whole cell patch clamp assay
# [7] = target: T1, Acid-sensing ion channel 1 (Homo sapiens); experiment: Reversible inhibition of human ASIC1a endogenously expressed in HEK293 cells clamped at -100 mV gated ionic current at 100 nM to 100 uM at pH 6.7 by standard whole cell patch clamp assay
# [8] = target: T1, Acid-sensing ion channel 1 (Homo sapiens); experiment: Inhibition of human ASIC1a endogenously expressed in HEK293 cells clamped at -100 mV gated ionic current at 10 uM at pH 5.0 by standard whole cell patch clamp assay
# [9] = target: T1, Acid-sensing ion channel 1 (Homo sapiens); experiment: Inhibition of human ASIC1a endogenously expressed in HEK293 cells clamped at -20 mV gated ionic current at 10 uM by standard whole cell patch clamp assay
# [10] = target: T1, Acid-sensing ion channel 1 (Homo sapiens); experiment: Inhibition of human ASIC1a endogenously expressed in HEK293 cells clamped at -100 mV gated ionic current at 10 uM in presence of cellular membrane depolarization by standard whole cell patch clamp assay
# [11] = target: T1, Acid-sensing ion channel 1 (Homo sapiens); experiment: Inhibition of human ASIC1a endogenously expressed in HEK293 cells clamped at -100 mV gated ionic current at 10 uM by standard whole cell patch clamp assay
inhibition [1] [%],inhibition [2],inhibition [3] [%],inhibition [4] [%],inhibition [5] [%],inhibition [6] [%],inhibition [7],inhibition [8] [%],SMILES,inhibition [9] [%],inhibition [10],inhibition [11] [%]
3.7,Active,28.8,22.1,96.1,68.9,Active,65.7,CCN(CC)CCN(Cc1ccccc1)c1ccc2cc(C(=N)N)c(=O)oc2c1,–,–,–
49,–,41,–,–,–,–,–,CCN(CC)c1ccc2cc(C(=N)N)c(=O)oc2c1,–,–,–
–,–,–,–,–,–,–,–,N=C(N)NC(=O)c1nc(Cl)c(N)nc1N,60.7,inactive,41.3
